≈ marks a conversion by molar mass, not a printed value.
Test system: VISA clinical isolates of MRSA (VI-MRSA) and of MSSA (VI-MSSA)
Experiment: microbe, parasite or virus in culture
Format: cell-based, Staphylococcus aureus
Method: Each of the bacterial strains listed in Table 1-1 was shake-cultured at 37° C. overnight in 4 mL of a medium (Tryptical Soy Broth: TSB, product of Becton Dickinson and Company). FDA209P was used as a control.
After completion of culturing, the resultant culture was suspended in a cation-adjusted Mueller Hinton Broth (CAMHB, product of Becton Dickinson and Company). Then, the obtained bacterial culture was adjusted in absorbance with the CAMHB so that the absorbance at 578 nm of the bacterial culture was adjusted to 0.3 measured by an absorption spectrometer. In addition, the resultant bacterial culture was 500-fold diluted with the CAMHB.
Each of the 500-fold diluted, pre-cultured bacterial cultures was added at 50 μL/well to the CAMHB containing the quinolones and the nybomycins at various concentrations (50 μL/well), followed by statically culturing at 37° C. overnight.
After completion of culturing, the growth of the bacteria was visually determined based on turbidity to measure MIC in each bacterial strain.
Here, the glycopeptides used were VCM and TEIC. The β-lactam used was OXA.

Structure (SMILES): CCn1cc(C(=O)O)c(=O)c2cc(F)c(N3CCNCC3)cc21 [NFLX, norfloxacin]
- MIC (Staphylococcus aureus, 99/3700-W, VI-MRSA, The United Kingdom): 64 µg/mL (≈ 200 µM)
- MIC (Staphylococcus aureus, 99/3759-V, VI-MRSA, The United Kingdom): 128 µg/mL (≈ 401 µM)
- MIC (Staphylococcus aureus, 28160, VI-MRSA, South African Republic): 64 µg/mL (≈ 200 µM)
- MIC (Staphylococcus aureus, 98141, VI-MRSA, France): 64 µg/mL (≈ 200 µM)
- MIC (Staphylococcus aureus, A7 (JCSC4842), VI-MRSA, Taiwan): 32 µg/mL (≈ 100 µM)
- MIC (Staphylococcus aureus, AMC11094, VI-MRSA, Korea): 128 µg/mL (≈ 401 µM)
- MIC (Staphylococcus aureus, B7 (JCSC4852), VI-MRSA, Taiwan): 64 µg/mL (≈ 200 µM)
- MIC (Staphylococcus aureus, BR1, VI-MRSA, Brazil): 128 µg/mL (≈ 401 µM)
- MIC (Staphylococcus aureus, BR2, VI-MRSA, Brazil): 64 µg/mL (≈ 200 µM)
- MIC (Staphylococcus aureus, BR3, VI-MRSA, Brazil): 64 µg/mL (≈ 200 µM)
- MIC (Staphylococcus aureus, BR4, VI-MRSA, Brazil): 128 µg/mL (≈ 401 µM)
- MIC (Staphylococcus aureus, BR5, VI-MRSA, Brazil): 128 µg/mL (≈ 401 µM)
- MIC (Staphylococcus aureus, HIP06297, VI-MRSA, America): 64 µg/mL (≈ 200 µM)
- MIC (Staphylococcus aureus, HIP06854, VI-MRSA, America): 128 µg/mL (≈ 401 µM)
- MIC (Staphylococcus aureus, HIP07920, VI-MRSA, America): 16 µg/mL (≈ 50.1 µM)
- MIC (Staphylococcus aureus, HIP07930, VI-MRSA, America): 128 µg/mL (≈ 401 µM)
- MIC (Staphylococcus aureus, HIP08926, VI-MRSA, America): 64 µg/mL (≈ 200 µM)
- MIC (Staphylococcus aureus, HIP09143, VI-MRSA, America): > 128 µg/mL
- MIC (Staphylococcus aureus, HIP09313, VI-MRSA, America): 32 µg/mL (≈ 100 µM)
- MIC (Staphylococcus aureus, HIP09433, VI-MRSA, America): > 128 µg/mL
- MIC (Staphylococcus aureus, HIP09662, VI-MRSA, America): 64 µg/mL (≈ 200 µM)
- MIC (Staphylococcus aureus, HIP09735, VI-MRSA, America): > 128 µg/mL
- MIC (Staphylococcus aureus, HIP09737, VI-MSSA, America): > 128 µg/mL
- MIC (Staphylococcus aureus, HIP09740, VI-MRSA, America): > 128 µg/mL
- MIC (Staphylococcus aureus, HIP10267, VI-MRSA, America): > 128 µg/mL
- MIC (Staphylococcus aureus, HIP10540, VI-MRSA, America): > 128 µg/mL
- MIC (Staphylococcus aureus, HIP12864, VI-MRSA, America): 64 µg/mL (≈ 200 µM)
- MIC (Staphylococcus aureus, HIP13036, VI-MRSA, America): 16 µg/mL (≈ 50.1 µM)
- MIC (Staphylococcus aureus, HIP13057, VI-MRSA, America): 128 µg/mL (≈ 401 µM)
- MIC (Staphylococcus aureus, IL (HIP7737), VI-MRSA, America): > 128 µg/mL
- MIC (Staphylococcus aureus, JCSC7193, VI-MRSA, Thailand): 64 µg/mL (≈ 200 µM)
- MIC (Staphylococcus aureus, JCSC7195, VI-MRSA, Thailand): 128 µg/mL (≈ 401 µM)
- MIC (Staphylococcus aureus, JCSC7203, VI-MRSA, Thailand): 64 µg/mL (≈ 200 µM)
- MIC (Staphylococcus aureus, LIM2, VI-MRSA, France): 128 µg/mL (≈ 401 µM)
- MIC (Staphylococcus aureus, LY-1999-01, VI-MSSA, Oman): 16 µg/mL (≈ 50.1 µM)
- MIC (Staphylococcus aureus, LY-1999-03, VI-MRSA, Oman): 64 µg/mL (≈ 200 µM)
- MIC (Staphylococcus aureus, MI (HIP5827), VI-MRSA, America): 128 µg/mL (≈ 401 µM)
- MIC (Staphylococcus aureus, MRSA / MSSA / NRS 76 / VISA, NRS76, VI-MSSA, America): 128 µg/mL (≈ 401 µM)
- MIC (Staphylococcus aureus, MRSA / MSSA / NRS 79 / VISA, NRS79, VI-MRSA, America): > 128 µg/mL
- MIC (Staphylococcus aureus, MRSA / MSSA / NRS 118 / VISA, NRS118, VI-MRSA, America): 128 µg/mL (≈ 401 µM)
- MIC (Staphylococcus aureus, MRSA / MSSA / NRS 126 / VISA, NRS126, VI-MRSA, America): 64 µg/mL (≈ 200 µM)
- MIC (Staphylococcus aureus, Mu3, VI-MRSA, Japan): 128 µg/mL (≈ 401 µM)
- MIC (Staphylococcus aureus, Mu50, VI-MRSA, Japan): 128 µg/mL (≈ 401 µM)
- MIC (Staphylococcus aureus, NJ (HIP5836), VI-MRSA, America): 128 µg/mL (≈ 401 µM)
- MIC (Staphylococcus aureus, P1V44, VI-MSSA, Belgium): 4 µg/mL (≈ 12.5 µM)
- MIC (Staphylococcus aureus, PC, VI-MRSA, America): 64 µg/mL (≈ 200 µM)
- MIC (Staphylococcus aureus, SA MER-S6, VI-MSSA, France): 2 µg/mL (≈ 6.26 µM)
- MIC (Staphylococcus aureus, SA MER-S12, VI-MSSA, France): 2 µg/mL (≈ 6.26 µM)
- MIC (Staphylococcus aureus, SA MER-S20, VI-MSSA, France): 0.5 µg/mL (≈ 1.57 µM)

Reference: patent US20120258980A1, “Antibacterial Agent for Drug-Resistant Bacteria, Method for Screening for Same, and Use of Same” (priority 2009, published 2012)
